Reference: patent US7625863B2, “Treatment of patients with dysfunctional cardiac sodium channels” (The MetroHealth System, priority 2006, dated 2009)
Several values for one entry are separate records, joined by “and”; a condition that tells them apart may be missing. Equal values may be shown once. Entries after “also recorded” stand apart in the source; their conditions may differ. Where no end group is shown, it is not given here.

Columns and labels:
[1] = target: T1, C373Y-SCN5A channels (Homo sapiens, UniProt Q14524, C373Y); type: cell-based
T1 construct: expressed in transfected cells; host or cells: HEK293
Protocol: (§1) Expression of hNav1.5 in HEK293 Cells: Transient transfections of SCN5A expressed in GFP-IRES were performed in human embryonic kidney cells (HEK293) with the Polyfect transfection kit (Qiagen, Valencia, Calif.) according to the manufacturer's protocol for 24 hours.
(§2) Electrophysiology: Macroscopic sodium currents from transfected cells were recorded using the whole-cell configuration of the patch-clamp technique as previously described. (Deschenes I, et al., Cardiovasc Res. 2000; 46:55-65). Cells that emitted green fluorescence and expressed INa-like currents were considered to express mutants and/or polymorphisms of hNav1.5. Patch electrodes were made from 8161 Corning glass (Dow-Corning, Midland, Mich.). Low-resistance electrodes (<2 MΩ) were used, and a routine-series resistance compensation of an Axopatch 200A was performed to values >80% to minimize the voltage-clamp errors. Voltage-clamp command pulses were generated by a microcomputer using PCLAMP software version 9.02 (Axon Instruments, Foster City, Calif.). To stabilize the current, experiments were performed 10 minutes after entering whole-cell configuration. Membrane currents were filtered at 5 kHz and digitized with 12-bit resolution. […]
(§3) Voltage dependence of steady-state inactivation was determined by 500-ms prepulses ranging from −140 to −30 mV. […]

[2] = system: WT-SCN5A+C373Y-SCN5A channels; type: cell-based, human
Protocol: as §1, §2, §3

[3] = target: T2, H558R-SCN5A+R282H-C373Y-SCN5A channels (Homo sapiens, UniProt Q14524, H558R); assay: MTSET block of whole-cell sodium current, H558R-SCN5A+R282H-C373Y-SCN5A; type: cell-based; details: 1 μmol/L MTSET, after 10 minutes, 1 μg + 1 μg, HEK293
T2 construct: expressed in transfected cells; host or cells: HEK293
Protocol: as §1, §2, §3

[4] = target: T3, WT channels (Nav1.5) (Homo sapiens, UniProt Q14524); assay: Whole cell patch clamp of sodium currents in HEK293 cells co-expressing WT channels and polymorphic peptide; type: cell-based
T3 construct: expressed in transfected cells; host or cells: HEK293
Description: Creation of Channel Fragments: Channel fragments were created by amplifying a small piece of either the wild type or the H558R polymorphic channel. These pieces were ligated into either the pcDNA3 vector or the pECFP-N3 vector (BD Biosciences Clonetech). The sequences for the fragments are: Wild Type 20 amino acid-[…] (SEQ ID NO: 10), Polymorphic 40 amino acid-[…] (SEQ ID NO: 4), and polymorphic 20 amino acid-[…] (SEQ ID NO: 3).
Expression of Nav1.5 and Fragments in HEK293 Cells: Transient transfection of Nav1.5 and Nav1.5 fragments into human embryonic kidney (HEK293) cells was accomplished using the Polyfect transfection kit (Qiagen, Valencia, Calif.) according to the manufacturer's protocol for 24 hours. When channels were expressed alone, […] of channel cDNA was used. For co-transfections, 1 μg of channel cDNA and 1 μg of fragment cDNA were combined.
Electrophysiology: Macroscopic sodium currents from transfected cells were recorded using the whole cell configuration of the patch clamp technique as previously described (Deschenes, I., et al., 2000 Cardiovasc. Res. 46: 55-65). Cells that emitted green fluorescence were considered successfully transfected. Patch electrodes were made from 1.5 mm thin walled glass capillaries (World Precision Instruments, Sarasota, Fla.). Low resistance electrodes (<2MΩ) were used, and a routine series resistance compensation of an Axopatch 200A was preformed to values >80% to minimize voltage clamp errors. Voltage clamp command pulses were generated by a microcomputer using PCLAMP software version 9.02 (Axon Instruments, Foster City, Calif.). To allow currents to stabilize, experiments were performed 10 minutes after entering whole cell configuration. Membrane currents were filtered at 5 kHZ and digitized with 12-bit resolution. The internal solution contained (in mmol/L) NaCl 35, CsF 105, EGTA 10, and Cs-HEPES 10 adjusted to pH7.4. […]
Whole cell sodium current densities were measured by dividing the peak current obtained from stepping in 10 mV intervals from −80 to 30 mV from the holding potential of −120 mV by the cell capacitance. Cell capacitance was determined by integrating the area under the capacitive transient of a pulse from −80 mV to −70 mV. […]
Voltage dependence of steady state inactivation was determined by 500 ms prepulses ranging from −140 to −30 mV (FIG. 7B inset). […]
Conductance was calculated from peak current obtained by holding the resting membrane potential at −120 mV and stepping in 10 mV intervals from −80 mV to 20 mV according to the equation: G=I/(Vm−Vrec)
The conductance was also fit to a Boltzmann distribution. Time constant of inactivation was measured by fitting individual current traces from the peak current to the end of the pulse with a single exponential: I(t)=A*exp(−t/τ)

[5] = system: YFP-1022; assay: FRET folding study of non-mutated channel construct in HEK293 cells; type: cell-based, human; details: non-mutated YFP-1022 co-expressed with peptide
Description: Image Analysis and Calculation of Fluorescence Resonance Energy Transfer Ratios: Images were acquired with and Olympus IX71 fluorescent microscope that was fitted with a Hamamatsu ORCA-ER charge coupled device (12 bit) and controlled by the SLIDEBOOK software package from Intelligent Imaging Innovations (Denver, Colo.). Filter cube specifications for the fluorescent channels were as follows for excitation and emission, respectively: enhanced cyan fluorescent protein (CFP), 430±25 and 470±30 nm; enhanced yellow fluorescent protein (YFP), 500±20 and 535±30 nm, and fluorescence resonance energy transfer (FRET), 430±25 and 535±30 nm.
Image analysis involved three basic operations: subtraction of background autofluorescence and blurred light, quantification of fluorescence intensity, and calculation of a corrected FRET (FRETc) using the following equation: FRETc=(IDA−aIAA−dIDD)/IDD,
Where IDA is the fluorescence intensity of the cell measured from the FRET filter set and IDD and IAA are the fluorescent intensities of the same cell measured from the CFP (donor) and YFP (acceptor) filter sets, respectively. The cross-talk coefficients, a and d, are considered constant and a property of our microscope's filter sets, with a=0.03 and d=0.63. The corrected FRET ratio (FRETc) includes normalization to IDD to correct for variances in protein expression from cell to cell. […]

[6] = system: hNav1.5 protein fragments centered on 558 fused to YFP; assay: FRET between hNav1.5 protein fragments centered on 558 fused to CFP or YFP; type: cell-based, human; details: coexpressed with homotypic YFP fragment
Description: (§4) The beam splitter was the Chroma 86002v2bs multiband beam splitter for ECFP and EYFP (Rockingham, Vt.).
(§5) The corrected FRET ratio was defined as FRETc/IDD.

[7] = target: T4, hNav1.5 protein fragments centered on 558 fused to YFP (Homo sapiens, UniProt Q14524); assay: as above; type: cell-based; details: coexpressed with heterotypic H558-YFPf, internalized compartments
T4 construct: Fragments centered on 558 (40 amino acids) were fused to either CFP or YFP; expressed in transfected cells
Description: as §4, §5

[8] = WT channels treated with polymorphic peptide, HEK293

Molecule: C[N+](C)(C)CCSS(C)(=O)=O.[Br-] [MTSET, [2-(trimethylammonium)ethyl]methanethiosulfonate bromide]
- decrease of peak current density [1]: does not significantly decrease peak current densities; also recorded: does not block
- decrease of whole-cell sodium current [2]: 42.6±9.5% and 50%
- reduction of whole-cell sodium current [3]: 48.1±10.0% and 50%

Molecule: GSEADFADDENSTAGESESHRTSLLVPWPLRRTSAQGQPS [R558-40aa, 40 amino acid fragment of Nav1.5 containing the H558R polymorphism, expressed from cDNA]
- current density ([4]; HEK293 cells, WT channels co-expressed with the 40 amino acid fragment, WT alone −337.7±105.8): −474.1±125.9 pA/pF
- Conductance (V1/2) [4, 8]: −40.2 ± 3.3 mV
- Steady State Inactivation (V1/2) [4, 8]: −90.0 ± 1.6 mV
- Time Constant of Inactivation compared to WT ([4]; WT channels with peptide, FIG. 7D): behaved similarly to WT
- FRETc compared with YFP-1022 alone [5]: similar

Molecule: H558-CFPf: hNav1.5 fragment centered on 558 (40 amino acids) with H558, fused to CFP (GSEADFADDENSTAGESESHHTSLLVPWPLRRTSAQGQPS; also: fused to CFP (carrier left off))
- FRETc [6]: 0.01±0.01

Molecule: NSTAGESESHRTSLLVPWPL [R558-20aa, 20 amino acid fragment of Nav1.5 containing the H558R polymorphism, expressed from cDNA]
- FRETc compared with YFP-1022 alone [5]: similar

Molecule: R558-CFPf: hNav1.5 fragment centered on 558 (40 amino acids) with R558, fused to CFP (GSEADFADDENSTAGESESHRTSLLVPWPLRRTSAQGQPS; also: fused to CFP (carrier left off))
- FRETc [7]: 0.04±0.02
- FRETc [6]: 0.01±0.01
